Common to all, as to type: cell-based
One experiment deals with Candida albicans. Description: Inhibition test (microdilution assay), inhibition of fungal growth. The following applies: read-out: Inhibition of bacterial growth: Candida albicans; for inhibition at 100 µM: c = 100 μM. Here is the method: (§1) Inhibition Test Culture media used: Müller-Hinton broth Caso agar plates Test method: Microdilution assay The test organisms are cultured overnight in […]-Honton broth at 35° C. +/-2° C. The suspension of organisms is centrifuged (5000 rev./min, 4° C.); the pellet is resuspended in fresh medium and incubated for a further 2 h. The pellet is then resuspended in 0.9% NaCl solution and the number of cells is adjusted to about 10^8 CFU/ml using standard curves. The resulting suspension is then diluted with Müller-Hinton broth to about 10^4 CFU/ml(=inoculum). Starting from the inoculum, a determination of the number of organisms is carried out by spiralling out (2×0.1 ml) a suitable dilution stage onto CASO agar plates. Test procedure: Specific concentrations of the potential inhibitors are dispensed into a 96-well microtitre assay plate, wells A1-H1remaining empty. The wells of the microtitre assay plates are inoculated with the adjusted suspension of organisms. Wells A1-H1serve as growth controls. Immediately after inoculation and after incubation of the plates for 24 h and 48 h, they are measured in a plate reader (Biotek EL 311) at 550 nm. From the crude data, the inhibition of bacterial and fungal growth is calculated in percent.

The test system of another experiment is Staph. aureus. Description: Inhibition test (microdilution assay), inhibition of bacterial growth. Particulars: Staphylococcus aureus; for inhibition at 100 µM: c = 100 μM. Here is the method: as §1
The next experiment concerns Bac. subtilis. The description is as above. The following applies: Bacillus subtilis; for inhibition at 100 µM: c = 100 μM. Here is the method: as §1
The test system of the next experiment is Strept. pneumoniae. Described as above. The following applies: Streptococcus pneumoniae; c = 100 μM. The procedure: as §1
A further experiment relates to A549. As to the kind of experiment: Assay 1: cell growth by acid phosphatase activity. Particulars: Homo sapiens; for GI50: A549, acid phosphatase, substance 0.1-100 μM, 48 h and 96 h, read-out: Cell proliferation GI50: A549; for inhibition at up to 100 µM: A549, printed beside GI50 >100 μM, concentration not given, read-out: Cell proliferation: A549, % inhibition. Here is the method:
(§2) Assay 1 Measurement of cell growth by determination of the activity of the intracellular enzyme acid phosphatase. The added substrate p-nitrophenyl phosphate is converted by acid phosphatase into p-nitrophenol, which absorbs light at 405 nm, the intensity of the yellow coloration being proportional to the number of cells. Incubation of the cell lines HEPG-2 and A549 together with the substance (0.1-100 μM) was carried out for 48 h and 96 h at 37° C. and 5% CO2.

The next experiment deals with HepG2. As to the kind of experiment: Assay 1: cell growth by acid phosphatase activity. The following applies: Homo sapiens; for GI50: HepG2, acid phosphatase, substance 0.1-100 μM, 48 h and 96 h, read-out: Cell proliferation GI50: HepG2; for inhibition at up to 100 µM: HepG2, printed beside GI50 >100 μM, concentration not given, read-out: Cell proliferation: HepG2, % inhibition. Here is the method: as §2

The structures appear in SMILES notation.

Regarding `c1ccc(COc2cc3c(-c4cncn4C4CCc5ccccc54)c[nH]c3cn2)cc1` (stereo not shown) [Example 12], in the experiment on Candida albicans, the inhibition at 100 µM turned out to be 60%. This compound also returned an inhibition at 12.5 µM in the experiment with Staph. aureus (c = 12.5 μM) of 80%. In the experiment on Bac. subtilis (c = 25 μM), this compound showed an inhibition at 25 µM of 100%.
Consider `c1ccc(COc2cc3c(-c4cncn4C4CCCc5ccccc54)c[nH]c3cn2)cc1` (stereo not shown) [Example 1], for which the inhibition at 100 µM in the experiment on Candida albicans amounted to 0%; in the experiment on Staph. aureus it was 100%; in the experiment with Strept. pneumoniae it was 100%; in the experiment with Bac. subtilis it was 100%. Besides, the GI50 with A549 is over 100 µM. In the experiment on A549, the inhibition at up to 100 µM came to 22%.
As to `c1ccc(COc2cc3c(-c4cncn4C4CCN(Cc5ccccc5)CC4)c[nH]c3cn2)cc1` [Example 4], the inhibition at 100 µM with Candida albicans was found to be 70%; in the experiment with Staph. aureus, 100%; in the experiment with Strept. pneumoniae, 90%; in the experiment on Bac. subtilis it was 100%. Also, the GI50 in the experiment on A549 and in the experiment with HepG2 was over 100 µM each time. Also, the inhibition at up to 100 µM with A549 is 41%; with HepG2, 65%.
In the case of `O[C@@H]1Cc2ccccc2C1n1cncc1-c1c[nH]c2cnc(OCc3ccccc3)cc12` (stereo partly shown) [Example 13], the inhibition at 200 µM in the experiment on Candida albicans (c = 200 μM) was found to be 90%. Besides, the inhibition at 100 µM with Staph. aureus and in the experiment with Bac. subtilis was 90% in each case.
With `c1ccc(COc2cc3c(-c4cncn4CCc4c[nH]c5ccccc45)c[nH]c3cn2)cc1` [Example 6], the inhibition at 100 µM was 0% in the experiment on Candida albicans, 85% in the experiment with Staph. aureus, 10% in the experiment with Strept. pneumoniae and 10% in the experiment on Bac. subtilis. Further, the GI50 in the experiment with A549 and with HepG2 was over 100 µM each time. Further, the inhibition at up to 100 µM came to 19% in the experiment on A549 and 17% in the experiment on HepG2.
Take `Cc1[nH]c2ccccc2c1-c1cncn1C1CCN(Cc2ccccc2)CC1` [Example 2]: the inhibition at 100 µM in the experiment with Candida albicans was found to be 60%; in the experiment with Staph. aureus, 100%; in the experiment with Strept. pneumoniae, 90%; with Bac. subtilis, 100%. Moreover, the GI50 in the experiment on A549 and in the experiment on HepG2 was over 100 µM each time. The inhibition at up to 100 µM came out at 12% with A549 and 1% in the experiment on HepG2.
On to `c1ccc(CN2CCC(n3cncc3-c3c[nH]c4ccccc34)CC2)cc1` [Example 3], for which the inhibition at 100 µM with Candida albicans was found to be 60%; in the experiment with Staph. aureus it was 100%; with Strept. pneumoniae it was 80%; in the experiment on Bac. subtilis, 100%. Further, the GI50 in the experiment on A549 and in the experiment with HepG2 was over 100 µM each time. Besides, the figures for the inhibition at up to 100 µM in the experiment with A549 and in the experiment with HepG2 were 26% and 48%, respectively.
Turning to `Cc1[nH]c2ccccc2c1-c1cncn1CCNC(C)C` [Example 8], the inhibition at 100 µM in the experiment on Candida albicans was 0%; in the experiment on Staph. aureus it was 82%; in the experiment on Strept. pneumoniae it was 0%; in the experiment on Bac. subtilis, 39%. The GI50 in the experiment on A549 and with HepG2 was over 100 µM in each case. In addition, the inhibition at up to 100 µM in the experiment on A549 is 10%; in the experiment with HepG2, 0%.
For the compound `Cc1[nH]c2ccccc2c1-c1cncn1C1CCCc2ccccc21` (stereo not shown) [Example 7], the inhibition at 100 µM was 0% in the experiment with Candida albicans, 40% in the experiment on Staph. aureus, 0% in the experiment on Strept. pneumoniae and 76% with Bac. subtilis. In addition, the GI50 in the experiment with A549 and in the experiment on HepG2 was over 100 µM each time. Also, the inhibition at up to 100 µM with A549 and in the experiment on HepG2 was 0% in each case.
For `COc1ccc2[nH]cc(-c3cncn3CCc3ccc(O)cc3)c2c1` [Example 9], the inhibition at 100 µM in the experiment with Candida albicans was 0%; in the experiment with Staph. aureus, 25%; in the experiment on Strept. pneumoniae, 85%; in the experiment on Bac. subtilis it was 38%. Further, the GI50 in the experiment with A549 and with HepG2 was over 100 µM in each case. Also, the inhibition at up to 100 µM with A549 amounted to 31%; in the experiment with HepG2, 14%.
With `Fc1ccc(-c2ncn(C3CCCc4ccccc43)c2-c2c[nH]c3cnc(OCc4ccccc4)cc23)cc1` (stereo not shown) [Example 11], the results for the inhibition at 50 µM in the experiment on Candida albicans (c = 50 μM), in the experiment on Staph. aureus (c = 50 μM) and in the experiment with Bac. subtilis (c = 50 μM) were 100%, 60% and 80%, respectively.
Consider `CC(C)CCn1cncc1-c1c[nH]c2cnc(OCc3ccccc3)cc12` [Example 5], for which the inhibition at 100 µM in the experiment on Candida albicans came to 0%; in the experiment on Staph. aureus it was 100%; in the experiment on Strept. pneumoniae, 90%; with Bac. subtilis it was 100%. In addition, the GI50 in the experiment with A549 and in the experiment with HepG2 was over 100 µM throughout. The inhibition at up to 100 µM was 33% in the experiment on A549 and 38% in the experiment on HepG2.

(Values after US6699883B1, “Pyrroloimidazole derivatives and their use as medicaments” (Morphochem AG, priority 1999, dated 2004).)
